The results in this text go back to patent publication US10906929B2, “Phosphoramidate nucleoside derivatives as anticancer agents” (NuCana plc, priority 2016, dated 2021).

Molecules are shown by their SMILES. A value given as a limit tells only on which side of the number the result lay.

The test system of one assay is HL-60. The assay can be described thus: In vitro cytotoxicity, MTS assay. It counts as cell-based. As to conditions: Homo sapiens, 72 h, read-out: Inhibitory concentration (IC50) HL-60. The procedure:
(§1) Cladribine phosphoramidate derivatives were evaluated against six leukaemic cell lines (KG1, U937, K562, NB4R2, NB4 and HL-60) in vitro. Inhibitory concentration (IC50) at which 50% of the cells were no longer viable (calculated using MTS assay) was determined. Cells were treated with Cladribine and its 3′-phosphoramidate derivatives at concentrations between 100 μM and 0.02 μM by serial dilutions and incubated for 72 h at 37° C., 5% CO2 in a final volume of 90 μL. Twenty microliters of MTS reagent (Promega UK Ltd, Southampton, Hants) was added to the tumour cell cultures and reaction incubated for a further 4 h at 37° C., 5% CO2. The absorbance of the reaction after this time was read by spectrophotometry at 490 nm and the percentage of viable cells calculated relative to untreated control cells in the same assay.

The test system of the next assay is K562. As to the kind of experiment: In vitro cytotoxicity, MTS assay. In kind it is cell-based. As to conditions: Homo sapiens, 72 h, read-out: Inhibitory concentration (IC50) K562. Here is the method:
as §1

The next assay concerns KG1. As to the kind of experiment: In vitro cytotoxicity, MTS assay. It counts as cell-based. As to conditions: Homo sapiens, KG-1, 72 h, read-out: Inhibitory concentration (IC50) KG1. Here is the method:
as §1

The subject of the next assay is NB4R2. As to the kind of experiment: In vitro cytotoxicity, MTS assay. In kind it is cell-based. As to conditions: 72 h, read-out: Inhibitory concentration (IC50) NB4R2. The procedure: as §1
The test system of the next assay is NB4. The assay can be described thus: In vitro cytotoxicity, MTS assay. It counts as cell-based. Particulars: Homo sapiens, NB-4, 72 h, read-out: Inhibitory concentration (IC50) NB4. Here is the method:
as §1

In a further assay the test system is U937. The assay can be described thus: In vitro cytotoxicity, MTS assay. It counts as cell-based. As to conditions: Homo sapiens, U-937, 72 h, read-out: Inhibitory concentration (IC50) U937. The procedure: as §1
The subject of assay [1] is HEL92.1.7 Erythroleukaemia. The assay can be described thus: In vitro viability assay, CellTiterGlo. In kind it is cell-based. As to conditions: for Top Inhibition (%): HEL92.1.7, CellTiterGlo, 72 h; for EC50: Homo sapiens, HEL 92.1.7, 72 h, read-out: EC50 (μM) Ab. The procedure:
(§2) In vitro viability assay was performed to assess the effects of compounds on cell viability in selected cell lines over 72 h using the CellTiterGlo (CTG, Promega-G7573) assay. The tests were performed in duplicates with treatment of compounds at 9 points, 3.16 folds titration in 96 well plates over ˜72 h. The compound starting concentrations were […]. Cell viability assay using CellTiterGlo in 96-well plate were performed. Compounds were dissolved to 40 mM with thawed 100% DMSO. Compounds were serially diluted at 3.16-fold in thawed DMSO, and warmed to 37° C. before being dissolved in media (2 μl+200 μl). After compounds were dissolved in media, media containing compounds were warmed to 37° C. in incubator and then compounds in media were added to cell plates (50 μl+50 μl) in duplicates. The compounds' final concentrations were from 198 μM to 19.9 nM. Solubility of all compounds was checked and recorded again, then the plates were transferred to CO2 tissue culture incubator immediately and incubated for 3 days. DMSO final concentration is 0.5%.

Assay [2] relates to HL-60 Promyelocytic leukaemia. The assay can be described thus: In vitro viability assay, CellTiterGlo. It counts as cell-based. Particulars: for Top Inhibition (%): HL-60, CellTiterGlo, 72 h; for EC50: Homo sapiens, HL-60, 72 h, read-out: EC50 (μM) Ab. Here is the method: as §2
In assay [3] the test system is KG-1 Acute myelogenous leukaemia. As to the kind of experiment: In vitro viability assay, CellTiterGlo. In kind it is cell-based. Particulars: for EC50: Homo sapiens, KG-1, 72 h, read-out: EC50 (μM) Ab; for Top Inhibition (%): KG-1, CellTiterGlo, 72 h. Here is the method:
as §2

For assay [4], the system named is RL Non-Hodgkin's lymphoma. As to the kind of experiment: In vitro viability assay, CellTiterGlo. In kind it is cell-based. Particulars: 72 h; for Top Inhibition (%): CellTiterGlo; for EC50: Homo sapiens, read-out: EC50 (μM) Ab. The procedure: as §2
The subject of assay [5] is Z-138 Mantle cell lymphoma. The assay can be described thus: In vitro viability assay, CellTiterGlo. It counts as cell-based. Particulars: for EC50: Homo sapiens, Z-138, 72 h, read-out: EC50 (μM) Ab; for Top Inhibition (%): Z-138, CellTiterGlo, 72 h. The procedure:
as §2

In assay [6] the test system is MCF-7 Mammary epithelial adenocarcinoma. The assay can be described thus: In vitro viability assay, CellTiterGlo. In kind it is cell-based, human. Particulars: for EC50: Homo sapiens, MCF7, 72 h, read-out: EC50 (μM) Ab; for Top Inhibition (%): MCF-7, CellTiterGlo, 72 h. Here is the method:
as §2

With `CCOC(=O)[C@H](C)NP(=O)(Oc1ccccc1)OC1C[C@H](n2cnc3c(N)nc(Cl)nc32)O[C@@H]1CO` (stereo partly drawn) [Compound 1, 2-Chloro-2 ‘-deoxyadenosine-3’-[phenyl-(ethoxy-L-alaninyl)]-phosphate], the IC50 is 2680 nM with HL-60; greater than 10000 nM in the assay on K562; 1760 nM in the assay on KG1; 2520 nM in the assay on NB4R2; 740 nM in the assay on NB4; 3060 nM in the assay with U937.
Take `C[C@H](NP(=O)(Oc1ccccc1)OC1C[C@H](n2cnc3c(N)nc(Cl)nc32)O[C@@H]1CO)C(=O)OC(C)(C)C` (stereo partly drawn) [Compound 2, 2-Chloro-2 ‘-deoxyadenosine-3’-[phenyl-(tert-butoxy-L-alaninyl)]-phosphate]: the IC50 with HL-60 was greater than 10000 nM; with K562, greater than 10000 nM; with KG1, 2000 nM; with NB4R2 it was greater than 10000 nM; in the assay with NB4, greater than 10000 nM; with U937 it was 6000 nM.
As for `C[C@@H](NP(=O)(Oc1ccccc1)OC1C[C@H](n2cnc3c(N)nc(Cl)nc32)O[C@@H]1CO)C(=O)OCc1ccccc1` (stereo partly drawn) [Compound 3, 2-Chloro-2 ‘-deoxyadenosine-3’-[phenyl-(benzoxy-D-alaninyl)]-phosphate], the IC50 in the assay on HL-60 is greater than 10000 nM; in the assay on K562, greater than 10000 nM; with KG1, greater than 10000 nM; in the assay with NB4R2 it was greater than 10000 nM; with NB4 it was 7820 nM; in the assay on U937 it was 7520 nM.
As for `Nc1nc(Cl)nc2c1ncn2[C@H]1CC(OP(=O)(NCC(=O)OCc2ccccc2)Oc2ccccc2)[C@@H](CO)O1` (stereo partly shown) [Compound 4, 2-Chloro-2 ‘-deoxyadenosine-3’-[phenyl-(benzoxy-glycinyl)]-phosphate], the IC50 is greater than 10000 nM in the assay on HL-60; greater than 10000 nM with K562; greater than 10000 nM in the assay with KG1; 5560 nM in the assay with NB4R2; 8040 nM in the assay on NB4; greater than 10000 nM with U937.
In the case of `CC(C)C[C@H](NP(=O)(Oc1ccccc1)OC1C[C@H](n2cnc3c(N)nc(Cl)nc32)O[C@@H]1CO)C(=O)OCc1ccccc1` (stereo partly drawn) [Compound 5, 2-Chloro-2 ‘-deoxyadenosine-3’-[phenyl-(benzoxy-L-leucinyl)]-phosphate], the IC50 with HL-60 is 4450 nM; with K562 it was greater than 10000 nM; in the assay with KG1, 5040 nM; in the assay on NB4R2 it was 1570 nM; in the assay on NB4, 2560 nM; in the assay with U937 it was greater than 10000 nM.
As for `CCCCCOC(=O)[C@H](CC(C)C)NP(=O)(Oc1cccc2ccccc12)OC1C[C@H](n2cnc3c(N)nc(Cl)nc32)O[C@@H]1CO` (stereo partly drawn) [Compound 7, 2-Chloro-2′-deoxyadenosine-3′-[1-naphthyl-(pentoxy-L-leucinyl)] phosphate], the “Top Inhibition (%)” value turned out to be 98.6% in assay [1]; 98% in assay [2]; 98.8% in assay [3]; 100% in [4]; 101% in assay [5]; 103% in assay [6]. Besides, the EC50 in assay [1] turned out to be 0.07 µM; in assay [2] it was 0.27 µM; in assay [3], 1.5 µM; in assay [4], 0.5 µM; in assay [5], 1.07 µM; in [6], 5.45 µM.
As to `C[C@H](NP(=O)(Oc1cccc2ccccc12)OC1C[C@H](n2cnc3c(N)nc(Cl)nc32)O[C@@H]1CO)C(=O)OC1CCCCC1` (stereo partly drawn) [Compound 8, 2-Chloro-2 ‘-deoxyadenosine-3’-[1-naphthyl-(cyclohexoxy-L-alaninyl)] phosphate], the “Top Inhibition (%)” value in [1] is 98.3%; in assay [2], 96%; in assay [3], 98.4%; in assay [4], 98.1%; in assay [5], 100%; in assay [6] it was 101%. Moreover, the EC50 in [1] was determined as 0.18 µM; in assay [2] it was 0.46 µM; in [3] it was 2.75 µM; in assay [4], 0.85 µM; in assay [5], 3.5 µM; in assay [6] it was 7.97 µM.
For the compound `CCOC(=O)C(C)(C)NP(=O)(Oc1ccccc1)OC1C[C@H](n2cnc3c(N)nc(Cl)nc32)O[C@@H]1CO` (stereo partly shown) [Compound 11, 2-Chloro-2 ‘-deoxyadenosine-3’-[phenyl-(ethoxy-2,2-dimethylglycinyl)]-phosphate], the IC50 is 300 nM in the assay with HL-60 and greater than 10000 nM in the assay with NB4.
Turning to `Nc1nc(Cl)nc2c1ncn2[C@H]1CC(OP(=O)(N[C@@H](Cc2ccccc2)C(=O)OCc2ccccc2)Oc2ccccc2)[C@@H](CO)O1` (stereo partly drawn) [Compound 12, 2-Chloro-2 ‘-deoxyadenosine-3’-[phenyl-(benzoxy-L-phenylalaninyl)] phosphate], the IC50 in the assay on HL-60 was determined as 2000 nM; in the assay on K562, 10000 nM; in the assay with KG1 it was 4000 nM; with NB4R2, 2000 nM; with NB4 it was 1000 nM; in the assay with U937, 2000 nM.
In the case of `Nc1nc(Cl)nc2c1ncn2[C@H]1CC(OP(=O)(N[C@@H](Cc2ccccc2)C(=O)OCc2ccccc2)Oc2cccc3ccccc23)[C@@H](CO)O1` (stereo partly drawn) [Compound 13, 2-Chloro-2′-deoxyadenosine-3′-[1-naphthyl(benzoxy-L-phenylaninyl)] phosphate], the IC50 with HL-60 turned out to be 1000 nM; with K562, 7000 nM; in the assay on KG1, 1000 nM; in the assay on NB4R2, 800 nM; with NB4, 300 nM; in the assay on U937, 1000 nM.
Take `CC(C)[C@H](NP(=O)(Oc1ccccc1)OC1C[C@H](n2cnc3c(N)nc(Cl)nc32)O[C@@H]1CO)C(=O)OCc1ccccc1` (stereo partly drawn) [Compound 14, 2-Chloro-2′-deoxyadenosine-3′-[phenyl-(benzoxy-L-valinyl)] phosphate]: the IC50 with HL-60 is 3000 nM; in the assay on K562, greater than 10000 nM; with KG1 it was 2000 nM; with NB4R2, 2000 nM; in the assay on NB4, 800 nM; in the assay on U937, 400 nM.
`CC(C)OC(=O)[C@H](C)NP(=O)(Oc1ccccc1)OC1C[C@H](n2cnc3c(N)nc(Cl)nc32)O[C@@H]1CO` (stereo partly drawn) [Compound 15, 2-Chloro-2′-deoxyadenosine-3′-[phenylaso-propoxy-L-alaninyl)] phosphate]: the IC50 in the assay on HL-60 is 2000 nM; with K562, greater than 10000 nM; in the assay with KG1, 5000 nM; in the assay on NB4R2 it was 9000 nM; in the assay on NB4, 6000 nM; with U937, 400 nM.
`CCC(C)OC(=O)[C@H](C)NP(=O)(Oc1ccccc1)OC1C[C@H](n2cnc3c(N)nc(Cl)nc32)O[C@@H]1CO` (stereo partly drawn) [Compound 16, 2-Chloro-2′-deoxyadenosine-3′-[phenyl-(2-butoxy-L-alaninyl)] phosphate]: the IC50 was 8000 nM with HL-60; greater than 10000 nM in the assay on K562; 7000 nM in the assay with KG1; greater than 10000 nM in the assay with NB4R2; 9000 nM in the assay with NB4; 2000 nM in the assay on U937.
As to `C[C@H](NP(=O)(Oc1ccccc1)OC1C[C@H](n2cnc3c(N)nc(Cl)nc32)O[C@@H]1CO)C(=O)O[C@@H](C)c1ccccc1` (stereo partly shown) [Compound 17], the IC50 in the assay on HL-60 is 3200 nM; in the assay with NB4, 5500 nM.
